Marks after values point to notes of the source that are not given here.
Experiments:
LC-11 lung cancer = test: human tumor xenograft in nude mice, LC-11; assay type: in vivo; conditions: Q1D × 8, 150 mg/kg/day
SC-2 gastric cancer = test: human tumor xenograft in nude mice, SC-2; assay type: in vivo; conditions: Q1D × 19, 120 mg/kg/day
H-154 gastric cancer = test: human tumor xenograft in nude mice, H-154; assay type: in vivo; conditions: Q5D × 5, 300 mg/kg/day
Calu-6 lung carcinoma = test: Calu-6 NSCL flank xenograft model (staged); assay type: in vivo, human
Experimental: (§1) Following inoculation of tumor cells, tumors were passaged three times in mice before using the fragments to generate single cell suspensions. Multiple animals were used as donors. Single cell suspensions were generated by homogenizing the minced tumor tissue in RPMI 1640 media. Cell suspensions were washed three times to remove debris and other foreign materials. Viable cells were counted by trypan blue exclusion technique using a hemocytometer. Mice were injected subcutaneously with 0.5 mL of the cell suspension containing 1×10^6 cells.
On day 10, mice bearing established tumors were size matched and grouped at about 233 mm^3.

[1] = test system: HCT-15 human colon carcinoma; test: HCT-15 human colon carcinoma xenografts; assay type: in vivo
Description: HCT-15 is a human colon carcinoma derived cell line. It is MDR positive, and expresses both mutant p53 and oncogenic K-ras. The HCT-15 cell line has one of the highest levels of mdr-1/P-glycoprotein expression of cells from the NCI tumor cell line panel.
Effect of Cytotoxic Agents on the Growth of HCT-15 Human Colon Carcinoma Xenografts

[2] = test system: MDA-MB-468 breast carcinoma; test: MDA-MB-468 breast flank xenograft model (staged); assay type: in vivo, human
Experimental: as §1
For determination of the efficacy of N-(2-((4-hydroxyphenyl)amino)pyrid-3-yl)-4-methoxybenzenesulfonamide in the MDA-MB-468 Breast Flank Xenograft model, tumor cells derived from serially passaged tumor fragments were inoculated subcutaneously in female nude mice on day 0. On day 10, mice bearing established tumors were size matched and grouped at about 231 mm^3.

LC-376 lung cancer = test: human tumor xenograft in nude mice, LC-376; assay type: in vivo; conditions: Q5D × 5, 300 mg/kg/day
[3] = pharmacokinetics in cancer subjects, single dose and 5-day repeated dose; assay type: in vivo, human
Experimental: (2-((4-hydroxyphenyl)amino)pyrid-3-yl)-4-methoxybenzenesulfonamide was evaluated in 57 cancer subjects in single dose (16 subjects) and 5-day repeated dose regimens (41 subjects). The doses administered in the single dose segment were 80 to 480 mg/m^2/day. In the 5-day repeated dose regimen (2-((4-hydroxyphenyl)amino)pyrid-3-yl)-4-methoxybenzenesulfonamide was given at 30 to 240 mg/m^2/day for a single cycle. […] Adverse drug reactions from the single dose and 5-day repeated dose segments included nausea and vomiting, diarrhea, epigastric pain, ileus and evidence of peripheral neuropathy. For the single dose segment, the dose limiting toxicity (DLT) was Grade 3 peripheral neuropathy in 1 of 5 subjects at 480 mg/m^2/day. In the 5-day repeated dose regimen the dose limiting toxicities were Grade 3 peripheral neuropathy in 1 of 4 subjects at 210 mg/m^2/day and Grade 4 intestinal paralysis in 1 of 4 subjects at 210 mg/m^2/day and in 1 of 6 subjects at 240 mg/m^2/day.

HT-1376 bladder = test: HT-1376 orthotopic tumor model; assay type: in vivo, human; conditions: d 1-5, 11-15
H-111 gastric cancer = test: human tumor xenograft in nude mice, H-111; assay type: in vivo; conditions: Q1D × 19, 80 mg/kg/day
H-143 colorectal cancer = test: human tumor xenograft in nude mice, H-143; assay type: in vivo; conditions: Q5D × 5, 300 mg/kg/day
C26 colon tumors = C26 colon tumors grown in the flank of CDF-1 mice; assay type: in vivo
LX-1 lung cancer = test: human tumor xenograft in nude mice, LX-1; assay type: in vivo; conditions: Q1D × 20, 120 mg/kg/day
H-31 breast cancer = test: human tumor xenograft in nude mice, H-31; assay type: in vivo; conditions: Q1D × 19, 80 mg/kg/day
[4] = test system: intestinal tumors of Apc^Min (Min) mice; test: Apc Min mice spontaneous intestinal tumorigenesis model; assay type: in vivo; conditions: orally once-a-day for 28 days at 150 mg/kg/day; vehicle controls 73.3
Description: Apc^Min (Min) mice are models for genetically inherited intestinal cancer. These mice carry a dominant germline mutation in the Apc tumor suppressor gene that predisposes them to the development of numerous (>50) tumors throughout the intestinal tract.
The average tumor number for treated mice was 49.8 compared to 73.3 for vehicle controls. Drug treatment was initiated at an age when the tumors were well-established.

[5] = oral 75 mg/kg/d QD, d 10-14, 20-24

SMILES: COc1ccc(S(=O)(=O)Nc2cccnc2Nc2ccc(O)cc2)cc1 [ABT-751, N-(2-((4-hydroxyphenyl)amino)pyrid-3-yl)-4-methoxybenzenesulfonamide]
- T/C (%) (LC-11 lung cancer): 93%
- T/C (%) (SC-2 gastric cancer): 28%
- T/C (%) (H-154 gastric cancer): 71%
- antitumor activity as single agent (Calu-6 lung carcinoma; 100 and 75 mg/kg/day, (5 day on/5 day off)×2): significant antitumor activity
- response in combination with cisplatin (Calu-6 lung carcinoma; in combination with cisplatin): greater than additive responses
- % T/C (Calu-6 lung carcinoma; oral 50 mg/kg/d QD, d 1-21): 54%
- % ILS (Calu-6 lung carcinoma; [5]): 58%
- % T/C (Calu-6 lung carcinoma; [5]): 50%
- % T/C (Calu-6 lung carcinoma; oral 100 mg/kg/d QD, d 10-14, 20-24): 37%
- % ILS ([1]; 50 mg/kg/d PO, QD, days 1-8): 34%
- T/C ([1]; 50 mg/kg/d PO, QD, days 1-8, 2 trials): 50 (2)
- efficacy in HCT-15 xenografts ([1]; in words): effective in inhibiting tumor growth
- antitumor activity as single agent ([2]; 100 and 75 mg/kg/day (5 days on/5 days off)×2, 50 mg/kg/day daily): dose-dependent antitumor activity
- response in combination with docetaxel ([2]; in combination with docetaxel at 33.3 mg/kg/day): greater than additive responses
- T/C (%) (LC-376 lung cancer): 18%
- half-life ([3]; human, plasma, cancer subjects, single dose and 5-day repeated dose, read-out: elimination half-life): 4 to 16 h
- AUC versus dose ([3]; range of 30 to 480 mg/m^2/day): increased proportionally with dose
- % T/C (HT-1376 bladder; oral 100 mg/kg/d QD): 63%
- % T/C (HT-1376 bladder; oral 100 mg/kg/d b.i.d.): 86^e %
- T/C (%) (H-111 gastric cancer): 36%
- T/C (%) (H-143 colorectal cancer): 17%
- antitumor activity against C26 colon tumors (C26 colon tumors; 5-day schedule): only marginally active
- antitumor activity against C26 colon tumors (C26 colon tumors; extended dosing): significant antitumor response
- T/C (%) (LX-1 lung cancer): 37%
- T/C (%) (H-31 breast cancer): 13%
- average tumor number [4]: 49.8
